Measurements as given in ChEMBL document CHEMBL1141270, “Withanolides from Jaborosa kurtzii” (2007).

What was measured:
Avena sativa = assay: Phytotoxicity against Avena sativa assessed as inhibition of radicle length at 400 ppm; type: functional
Lactuca sativa = assay: Phytotoxicity against Lactuca sativa assessed as inhibition in radicle length at 400 ppm; type: functional

How did the inhibition at 400 ppm (Avena sativa) turn out when `CC1=C(C)C(=O)O[C@]2(C1)O[C@@]1(O)CC3C(CC=C4CC=CC(=O)[C@@]43C)C3CC[C@@](O)([C@@H]2C)[C@]31C` (some centres not stated) [JABOROSALACTONE 43] was run?
The inhibition at 400 ppm was 4%.

And the inhibition at 400 ppm (Lactuca sativa)?
Its inhibition at 400 ppm is 32%.
